# Results: ChEMBL document CHEMBL1201862, “PubChem BioAssay data set” (2004)
# Calls of active or inactive are those of the source.
# Legend:
# [1] = biological target: T1, Heat shock factor protein 1 (Mus musculus, UniProt P38532); assay: HSF1 potentiators in luciferase reporter cells, confirmation, cell-based, NIH3T3, luminescence, dose retest (AID 435004); type: functional;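 further: stress induced by proteasome inhibitor MG132 added 30 min after compound; luciferase reporter driven by HSF1 response element in NIH3T3 cells; actives raise luminescence as potentiators of the MG132 stress response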
# T1 sequence (P38532 whole entry): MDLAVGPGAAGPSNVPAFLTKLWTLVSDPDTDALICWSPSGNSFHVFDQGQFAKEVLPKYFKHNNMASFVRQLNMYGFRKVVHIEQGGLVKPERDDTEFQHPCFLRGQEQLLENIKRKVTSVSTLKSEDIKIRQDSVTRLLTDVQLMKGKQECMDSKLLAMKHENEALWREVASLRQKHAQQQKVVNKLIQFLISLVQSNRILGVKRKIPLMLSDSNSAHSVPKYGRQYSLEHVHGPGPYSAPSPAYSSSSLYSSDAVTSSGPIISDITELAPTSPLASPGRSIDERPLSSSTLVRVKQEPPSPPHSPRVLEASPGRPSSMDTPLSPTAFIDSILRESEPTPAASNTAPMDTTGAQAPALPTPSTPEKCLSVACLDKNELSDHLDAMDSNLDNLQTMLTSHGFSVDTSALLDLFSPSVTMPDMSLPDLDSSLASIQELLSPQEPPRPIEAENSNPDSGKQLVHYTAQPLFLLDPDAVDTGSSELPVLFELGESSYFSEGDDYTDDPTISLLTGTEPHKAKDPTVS
# [2] = inhibitors of firefly luciferase expression or activity, dose response, H4 neuroglioma cells, luminescence (AID 1990); type: functional, cell-based
# [3] = inhibitors of SNCA 5'UTR-driven reporter translation, confirmation, H4 neuroglioma cells, luminescence (AID 1988); type: functional, cell-based
# [4] = Luminescence Cell-Based Dose Response HTS to Identify Inhibitors of 5'UTR Stem-Loop Driven Prion Protein mRNA Translation in H4 Neuroglioblastoma Cells. [Related pubchem assays: 1827 (Project Summary), 1813 (Primary HTS)]; type: functional
# Cytochrome P450 2C19 = Cytochrome P450 2C19 (Homo sapiens, UniProt P33261); assay: Cytochrome panel assay with activity outcomes. Panel member name: p450-cyp2c19 Compounds with AC50 equal or less than 10 uM are considered active; type: functional; conditions: read-out: AC50
# Cytochrome P450 1A2 = biological target: T2, Cytochrome P450 1A2 (Homo sapiens, UniProt P05177);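 further: PubChem cytochrome P450 panel assay, CYP1A2 panel member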
# T2 sequence (P05177 whole entry): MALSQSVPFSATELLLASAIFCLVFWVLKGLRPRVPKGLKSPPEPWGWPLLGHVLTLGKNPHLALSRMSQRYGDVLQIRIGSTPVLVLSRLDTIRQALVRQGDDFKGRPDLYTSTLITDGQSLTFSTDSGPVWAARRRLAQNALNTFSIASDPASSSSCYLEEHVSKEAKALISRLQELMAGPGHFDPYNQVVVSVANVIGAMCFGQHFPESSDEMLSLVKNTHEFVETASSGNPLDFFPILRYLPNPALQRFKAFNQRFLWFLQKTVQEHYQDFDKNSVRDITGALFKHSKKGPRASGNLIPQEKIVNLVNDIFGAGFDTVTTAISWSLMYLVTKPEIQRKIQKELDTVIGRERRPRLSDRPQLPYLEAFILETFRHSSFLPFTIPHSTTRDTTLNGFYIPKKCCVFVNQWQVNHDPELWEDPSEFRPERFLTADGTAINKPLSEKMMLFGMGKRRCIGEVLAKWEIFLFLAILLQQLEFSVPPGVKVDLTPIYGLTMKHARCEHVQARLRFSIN
# Cytochrome P450 3A4 = Cytochrome P450 3A4 (Homo sapiens, UniProt P08684);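 further: CYP3A4 tested as one member of a cytochrome P450 panel screen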
# Cytochrome P450 2C9 = Cytochrome P450 2C9 (Homo sapiens, UniProt P11712)
# [5] = biological target: T3, Corticotropin-releasing factor receptor 2/Corticotropin-releasing factor-binding protein (Homo sapiens, UniProt P24387+Q13324); assay: activators of CRF receptor 2 with binding protein – uHTS hits, confirmation (AID 602473); type: functional; conditions: read-out: EC50_Mean
# T3 sequence (Q13324 whole entry): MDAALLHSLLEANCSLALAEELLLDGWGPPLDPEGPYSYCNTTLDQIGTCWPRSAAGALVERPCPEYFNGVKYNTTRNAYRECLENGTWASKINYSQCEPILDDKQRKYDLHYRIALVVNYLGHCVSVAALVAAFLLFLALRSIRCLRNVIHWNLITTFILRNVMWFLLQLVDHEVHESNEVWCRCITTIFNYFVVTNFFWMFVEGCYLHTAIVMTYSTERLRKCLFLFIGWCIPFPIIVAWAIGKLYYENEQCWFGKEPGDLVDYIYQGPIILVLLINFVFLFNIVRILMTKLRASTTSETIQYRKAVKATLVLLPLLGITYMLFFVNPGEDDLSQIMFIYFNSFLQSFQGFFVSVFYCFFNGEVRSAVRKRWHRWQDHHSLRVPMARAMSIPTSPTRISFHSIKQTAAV
# T3 sequence (P24387 whole entry): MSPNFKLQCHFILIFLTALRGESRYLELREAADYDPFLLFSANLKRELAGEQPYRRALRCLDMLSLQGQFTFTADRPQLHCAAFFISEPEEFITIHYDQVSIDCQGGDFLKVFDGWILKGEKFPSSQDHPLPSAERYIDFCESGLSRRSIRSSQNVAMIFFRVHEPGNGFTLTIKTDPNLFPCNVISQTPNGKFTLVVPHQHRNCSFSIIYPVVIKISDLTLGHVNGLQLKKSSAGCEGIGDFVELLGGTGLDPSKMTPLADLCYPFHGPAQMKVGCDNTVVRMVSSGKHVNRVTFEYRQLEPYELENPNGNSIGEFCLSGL
# [6] = biological target: T3, Corticotropin-releasing factor receptor 2/Corticotropin-releasing factor-binding protein; assay: Dose Response confirmation of uHTS hits for small molecule antagonists of the CRF-binding protein and CRF-R2 receptor complex.; type: functional; conditions: read-out: IC50_Mean
# [7] = biological target: T4, Rac GTPase-activating protein 1 (Homo sapiens, UniProt Q9H0H5); assay: MgcRacGAP GTPase-activating activity inhibitors, confirmation, biochemical, ADP Hunter fluorescence, primary and confirmatory (AID 624330); type: functional
# T4 sequence (Q9H0H5 whole entry): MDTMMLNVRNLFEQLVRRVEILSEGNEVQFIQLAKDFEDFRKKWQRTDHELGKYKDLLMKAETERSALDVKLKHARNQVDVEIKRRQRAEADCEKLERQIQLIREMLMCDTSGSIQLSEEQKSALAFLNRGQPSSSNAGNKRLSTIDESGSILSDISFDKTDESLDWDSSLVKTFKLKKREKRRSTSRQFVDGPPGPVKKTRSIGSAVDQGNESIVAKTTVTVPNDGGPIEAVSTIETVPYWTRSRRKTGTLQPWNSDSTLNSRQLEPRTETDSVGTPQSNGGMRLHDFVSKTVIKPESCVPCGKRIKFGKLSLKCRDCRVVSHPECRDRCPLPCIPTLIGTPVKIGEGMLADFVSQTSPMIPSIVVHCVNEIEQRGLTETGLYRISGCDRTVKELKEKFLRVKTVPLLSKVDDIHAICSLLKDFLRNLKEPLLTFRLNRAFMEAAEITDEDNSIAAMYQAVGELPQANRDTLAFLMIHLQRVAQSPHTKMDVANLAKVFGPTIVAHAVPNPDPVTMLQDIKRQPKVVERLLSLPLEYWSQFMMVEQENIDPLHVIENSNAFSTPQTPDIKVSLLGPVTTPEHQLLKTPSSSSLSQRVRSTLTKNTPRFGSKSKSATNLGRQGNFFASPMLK
# [8] = cytotoxicity toward NIH3T3 fibroblasts, dose response, counter-screen, cell-based, ATP luminescence, mouse fibroblasts (AID 2010); type: functional;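 further: cells exposed to compound for about 90 hours before reading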
# [9] = inhibitors of intracellular T. cruzi replication, confirmation, NIH3T3 host cells, beta-gal luminescence (AID 2044); type: functional, cell-based;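 further: intracellular parasites grown in NIH/3T3 mouse fibroblasts as host cells; luminescent beta-galactosidase reporter signal from transgenic T. cruzi replicating inside host cells; inhibitors lower the luminescence signal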
# Sequence of Cytochrome P450 2C19 (P33261 whole entry): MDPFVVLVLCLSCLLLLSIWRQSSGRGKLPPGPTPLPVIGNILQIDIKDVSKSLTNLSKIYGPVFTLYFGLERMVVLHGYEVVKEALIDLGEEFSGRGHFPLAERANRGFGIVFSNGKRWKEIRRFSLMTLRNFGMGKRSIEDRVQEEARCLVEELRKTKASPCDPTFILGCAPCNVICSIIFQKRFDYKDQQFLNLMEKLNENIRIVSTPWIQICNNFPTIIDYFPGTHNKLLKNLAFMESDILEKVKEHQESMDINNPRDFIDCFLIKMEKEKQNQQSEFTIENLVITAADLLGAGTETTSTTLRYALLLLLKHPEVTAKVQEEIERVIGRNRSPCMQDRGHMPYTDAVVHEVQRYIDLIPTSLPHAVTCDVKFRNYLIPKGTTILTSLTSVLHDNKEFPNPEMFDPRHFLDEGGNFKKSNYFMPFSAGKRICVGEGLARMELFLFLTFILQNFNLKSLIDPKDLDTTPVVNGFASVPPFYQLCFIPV
# Sequence of Cytochrome P450 3A4 (P08684 whole entry): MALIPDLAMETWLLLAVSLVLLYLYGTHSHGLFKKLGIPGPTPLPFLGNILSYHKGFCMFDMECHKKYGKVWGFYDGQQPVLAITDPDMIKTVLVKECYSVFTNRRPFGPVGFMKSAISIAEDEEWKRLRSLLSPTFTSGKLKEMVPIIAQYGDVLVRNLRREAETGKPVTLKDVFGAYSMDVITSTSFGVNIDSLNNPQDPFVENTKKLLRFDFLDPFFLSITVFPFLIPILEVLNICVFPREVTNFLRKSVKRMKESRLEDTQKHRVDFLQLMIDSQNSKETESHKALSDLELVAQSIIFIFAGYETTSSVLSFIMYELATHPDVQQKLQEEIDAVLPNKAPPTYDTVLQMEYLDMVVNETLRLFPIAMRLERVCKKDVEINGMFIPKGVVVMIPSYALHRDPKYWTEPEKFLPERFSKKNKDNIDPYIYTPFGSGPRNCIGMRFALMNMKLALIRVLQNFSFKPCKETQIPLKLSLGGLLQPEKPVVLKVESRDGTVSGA
# Sequence of Cytochrome P450 2C9 (P11712 whole entry): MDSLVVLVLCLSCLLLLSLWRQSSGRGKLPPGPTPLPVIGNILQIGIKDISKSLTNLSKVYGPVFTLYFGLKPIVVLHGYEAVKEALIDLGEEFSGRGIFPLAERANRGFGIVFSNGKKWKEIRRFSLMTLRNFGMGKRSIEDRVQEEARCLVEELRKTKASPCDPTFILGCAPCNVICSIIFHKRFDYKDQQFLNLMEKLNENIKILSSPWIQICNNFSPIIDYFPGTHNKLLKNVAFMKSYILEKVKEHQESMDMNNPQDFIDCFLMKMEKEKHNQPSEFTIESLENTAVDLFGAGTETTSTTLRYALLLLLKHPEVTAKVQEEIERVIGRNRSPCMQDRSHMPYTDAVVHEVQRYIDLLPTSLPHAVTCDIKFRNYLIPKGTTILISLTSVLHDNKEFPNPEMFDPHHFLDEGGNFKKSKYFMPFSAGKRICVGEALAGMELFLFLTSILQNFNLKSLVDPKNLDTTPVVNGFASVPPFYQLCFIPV
smiles,measurement,setting,value
Cc1cccc(S(=O)(=O)NCCC(=O)OC(C)C(=O)NC(=O)NC2CCCCC2)c1 (stereo not drawn),EC50,[1],> 260 µM (inactive)
N#Cc1ccsc1NC(=O)COC(=O)CCCSc1nc2ccccc2s1,EC50,[2],> 120 µM (not active)
same,EC50,[3],16.1 µM (active)
same,EC50,[4],> 120 µM (not active)
O=C(c1ccco1)N(Cc1ccc([N+](=O)[O-])cc1)c1ccc(Br)cc1,EC50,[1],> 260 µM (inactive)
COc1ccc(C(=O)CC(=O)C(=O)Nc2cc(OC)c(OC)c(OC)c2)cc1,EC50,[1],> 260 µM (inactive)
O=c1c(-c2ccc(Cl)cc2)nc2cnc(N3CCNCC3)nc2n1Cc1ccc(F)cc1,AC50,Cytochrome P450 2C19,39.8 µM (inconclusive)
same,AC50,Cytochrome P450 1A2,15.8 µM (inconclusive)
same,AC50,Cytochrome P450 3A4,12.6 µM (inconclusive)
COC(=O)[C@@]1(Cc2ccc(F)cc2)[C@H]2c3cc(C(=O)N(C)C)n(Cc4cccc5ccccc45)c3C[C@H]2CN1C(=O)c1ccccc1,AC50,Cytochrome P450 1A2,6.31 µM (inconclusive)
Cc1nn(C(C)C(=O)NCCCN2CCCCC2C)c(=O)c2c1sc1ccccc12 (stereo not drawn),EC50,[1],> 260 µM (inactive)
O=c1c(-c2ccccc2)nc2cnc(N3CCNCC3)nc2n1Cc1ccc(F)cc1,AC50,Cytochrome P450 2C19,31.6 µM (inconclusive)
same,AC50,Cytochrome P450 1A2,20 µM (inconclusive)
COc1cccc(Cn2c(=O)c(CCc3ccccc3)nc3cncnc32)c1,AC50,Cytochrome P450 2C19,25.1 µM (inconclusive)
same,AC50,Cytochrome P450 2C9,12.6 µM (inconclusive)
same,AC50,Cytochrome P450 1A2,12.6 µM (inconclusive)
COc1ccc(Nc2ccccc2)c(C)c1,EC50,[5],> 53 µM (inactive)
same,IC50,[6],> 47.1 µM (inactive)
same,IC50,[7],44.9 µM (active)
Brc1ccccc1Cn1c(-c2cncs2)nc2ccccc21,EC50,[2],17.1 µM (active)
same,EC50,[3],> 120 µM (not active)
same,EC50,[4],> 120 µM (not active)
Cc1ccc(C(=O)Cn2nc(C(=O)O)c3ccccc3c2=O)cc1C,EC50,[1],> 260 µM (inactive)
CCN1CCSc2ccc(C(=O)NCc3cccc(Br)c3)cc21,EC50,[1],> 260 µM (inactive)
O=C(Nc1ccc2c(c1)OCO2)c1nn(-c2ccccc2)c(=O)c2ccccc12,EC50,[2],> 120 µM (not active)
same,EC50,[3],> 120 µM (not active)
same,EC50,[4],24 µM (active)
Cc1ccc(Cl)cc1N1CCN(C(=O)Cc2c(C(=O)O)[nH]c3ccc(Cl)cc23)CC1,EC50,[5],> 53 µM (inactive)
same,IC50,[6],> 47.1 µM (inactive)
Cc1ccc(-n2ccc(=O)c(-c3ccnc(SCc4cccc(Cl)c4)n3)n2)cc1,AC50,Cytochrome P450 1A2,14.1 µM (inconclusive)
COC(=O)C1=C(C)N(Cc2ccc(C)cc2)C(=O)/C1=C\c1cc(OC)c(OC)c(OC)c1,EC50,[1],11.6 µM (active)
COc1ccc(CNC2CCSc3ccccc32)cc1OC (stereo not drawn),EC50,[1],> 260 µM (inactive)
Cn1c(C(=O)OC(C(=O)NC(C)(C)C)c2cccnc2)cc2sccc21 (stereo not drawn),EC50,[8],48.4 µM (active)
same,EC50,[1],> 260 µM (inactive)
same,EC50,[9],1.23 µM (active)
Nc1c(S(=O)(=O)c2ccccc2)c2nc3ccccc3nc2n1Cc1ccco1,AC50,Cytochrome P450 1A2,22.4 µM (inconclusive)
N[C@H](C(=O)O)C1[C@H](C(=O)O)[C@H]1C(=O)O (stereo partly drawn),AC50,Cytochrome P450 2C19,31.6 µM (inconclusive)
same,AC50,Cytochrome P450 1A2,31.6 µM (inconclusive)
CSc1nsc(/C=C/Nc2ccc(Cl)cc2)c1C#N,AC50,Cytochrome P450 2C19,3.55 µM (inconclusive)
same,AC50,Cytochrome P450 1A2,5.62 µM (inconclusive)
COc1ccc(N(CC(=O)Nc2ccc(S(=O)(=O)N3CCCCC3)cc2)S(C)(=O)=O)cc1OC,EC50,[2],> 120 µM (not active)
same,EC50,[3],> 120 µM (not active)
same,EC50,[4],> 120 µM (not active)
Cc1cc2occ(CC(=O)NCc3cccs3)c2cc1C(C)C,EC50,[1],> 260 µM (inactive)
COC(=O)[C@@]1(Cc2ccc(OC)cc2)[C@H]2c3cc(C(=O)N4CCCC4)n(Cc4ccc(Cl)c(C(F)(F)F)c4)c3C[C@H]2CN1C(=O)c1ccccc1,AC50,Cytochrome P450 1A2,12.6 µM (inconclusive)
same,AC50,Cytochrome P450 3A4,1.26 µM (inconclusive)
COCCN(C(=O)C(C)C)c1nnc(-c2ccc(C)cc2)s1,AC50,Cytochrome P450 1A2,12.6 µM (inconclusive)
Cc1cccn2c(=O)nc(SCC(=O)N3N=C(c4cccs4)CC3c3ccc(F)cc3)nc12 (stereo not drawn),EC50,[8],11.6 µM (active)
same,EC50,[1],> 260 µM (inactive)
same,EC50,[9],1.48 µM (active)
CC(=O)Nc1ccc2c(c1)N(C(=O)CN(C)C)c1ccccc1CC2,EC50,[1],> 260 µM (inactive)
Cc1cc(F)c(F)c(C(=O)N2CCOCC2)c1Cl,EC50,[1],> 260 µM (inactive)
O=C(COC(=O)CCc1ccc(S(=O)(=O)N2CCOCC2)cc1)Nc1ccccc1OC(F)F,EC50,[5],> 53 µM (inactive)
same,IC50,[6],> 47.1 µM (inactive)
Cc1nnsc1-c1onc(C)c1C(=O)O/N=C/c1ccc(Cl)cc1,EC50,[5],> 53 µM (inactive)
same,IC50,[6],> 47.1 µM (inactive)
Cc1ncc([N+](=O)[O-])n1CCOC(N)=O [BAMNIDAZOLE],EC50,[5],> 53 µM (inactive)
same,IC50,[6],> 47.1 µM (inactive)
